Measurements as given in patent US20110118277A1, “METHOD OF TREATING LIVER DISEASE” (priority 2003, published 2011).

Key:
[1] = tested on: carbon tetrachloride-treated rats; details: earlier study; cited from earlier work
[2] = tested on: Mouse hepatic oval cells (HOC); assay: Oval cell growth in culture (WST-8 cell number assay); assay type: cell-based
Experimental: Mouse hepatic oval cells (HOC) (from Dr. Bryon Petersen, University of Florida College of Medicine, Gainesville, Fla.) were maintained in culture with Iscove's modified DMEM according to the protocol described in PNAS 99: 8078-8083, 2002. To confirm that the cells retained their oval cell phenotype in our hands, expression of the embryonic isoform of pyruvate kinase (M2-PK) was evaluated by immunocytochemistry and immunoblot.
Sub-confluent HOC were harvested by gentle trypsinisation and resuspended in serum-free Iscove's modified Dulbecco's minimal essential medium (DMEM), at a density of 5,000 cells/100 μl/well in 96-well plates. […] After 44 hours, cell numbers were assessed by a further 4 h incubation with WST-8 tetrazolium reagent (Dojindo Molecular Technologies, Gaithersburg, Md.) as described in J Clin Invest 106: 501-509, 2000. In viable cells, the tetrazolium salt is metabolized to a colorimetric dye and cell number is proportional to the signal intensity at 450 nm Therefore, this assay reliably detects treatment-induced changes in cell number.
Oval cells were cultured in serum free medium (SF), serum or serum plus increasing concentrations of NE (a) or ISO (c). After 48 hours, the numbers of cells in culture were evaluated. […] Cell numbers were determined after 48 hours.

hepatocyte DNA synthesis = details: rats pre-treated immediately before PH; cited from earlier work
TNF-α = assay: Hepatic expression of TNF-α mRNA in whole liver RNA; assay type: in vivo, mouse; details: 3 controls and 3 PRZ-treated mice
Source text: The latter possibility merits further investigation because it has been reported that TNF-a increases in mice that are fed choline-deficient diets and that proliferating hepatic oval cells produce this cytokine. Moreover, it has been reported that TNF-α is required for oval cell expansion because this response is abrogated by genetic disruption of TNFR1. These observations are particularly intriguing because TNF-α and TNFR1 are necessary for liver regeneration after PH and other types of liver injury. There is strong evidence for cross talk between signaling mechanisms that are activated by TNF-α and those that are modulated by sympathetic neurotransmitters, such as NE. In addition, NE regulates TNF production and vice versa. Thus, SNS inhibition may promote HPC accumulation and decrease liver injury indirectly, by effecting TNF-α activity. […] However, before firm conclusions can be drawn, these studies must be extended to include more animals and assays for TNF-α protein and activity will be necessary.

norepinephrine = details: 6-OHDA 100 mg/kg i.p. regimen, previously shown; cited from earlier work
[3] = tested on: C57BL-6 mice fed HMCDE diet; assay: HMCDE diet-induced liver injury in mice: body weight, liver mass, histology, serum ALT, tolerability; assay type: in vivo, mouse
Experimental: C57BL-6 mice, 10-18 weeks old, were from Jackson Laboratory (Bar Harbor, Me.) were subjected to the following experiments.
In addition to choline deficiency the diet used here was also 50% deficient in methionine to enhance oxidative injury to the liver, This diet was administered with ethionine (0.15%) in drinking water (Hepatology 2001; 34; 519-522) and the combination treatment is hereafter referred to as half methionine choline deficient diet plus ethionine (HMCDE).
Chemical sympathectomy was achieved by intra-peritoneal (IP) injection of 6-hydroxydopamine (6-OHDA), 100 mg/kg for 5 consecutive days as described in Ann Surg 2001; 233:266-275. Thereafter, 6-OHDA was administered at 100 mg/kg i.p., three times per week to ensure continued sympathectomy.
Mice were divided into 4 groups, with each group containing 10 to 12 animals. […] Therefore, final results are derived from ˜100 mice (10-12 mice/group/experiment×2 experiments).
All mice were weighed at the beginning of the feeding period and weekly thereafter until killed. At the time of sacrifice, sera were collected from all the animals in each group and liver tissue from half the animals in each group. Collected liver tissues were either fixed in buffered formalin, preserved in OCT compound (Sakura, Torrance, Calif.) and processed for histology or snap frozen in liquid nitrogen and stored at −80° C. until RNA was isolated. The livers from the remaining animals in each group were prepared for flow cytometry as described below.
Wedges of liver from each of the mice were prepared for histology and immunochemistry as described previously (Am J Pathol 2002: 161:5210530 and Nat. Med. 2000; 6: 998-1003). For histology, tissues were formalin fixed, paraffin embedded and […] sections were stained with hematoxylin and eosin (H&E). Coded samples were examined by an experienced liver pathologist who was blinded to treatment groups. Hepatocellular fat accumulation was scored as, no fat 0, focal fat accumulation in <1% of the hepatocytes=F, fat in 1-30% of the hepatocytes 1+, fat in 31-60% of the hepatocytes=2+, and fat in 61-100% of the hepatocytes3+. To evaluate the amount of hepatocyte necrosis, the number of necrotic hepatocytes was counted in 10 randomly selected fields with a 20× lens.
Sera from all the animals were analysed for alanine aminotransferase (ALT) activity by the Clinical Chemistry laboratory of the Johns Hopkins Hospital.

NK-T cells = assay: Flow cytometry of liver NK-T cells in HMCDE-fed mice; assay type: in vivo, mouse; details: HMCDE-treated mice; HMCDE alone 8±1%; mean±SEM
Experimental: Briefly, livers were carefully removed and homogenized in Stomacher80 (Seawood, England). The homogenate was then passed through a 100-μm wire mesh and liver cells were collected by centrifugation at 450 g. Mononuclear cells were purified from this fraction by centrifugation at 900 g over 35% Percoll gradients (Amersham Pharmacia Biotech) and incubated with normal mouse serum (Sigma, St Louis, Mo.) and Fc-receptor block (anti-CD16/CD32) to prevent nonspecific binding, plus APC-conjugated anti-mouse Thy-1.2 (the C57BL-6 form of the Thy-1 antibody) and antibodies directed against hematopoietic lineage markers (LIN, a mix of anti-mouse CD4, CD8, CD3, CD45, CD19, Mac-1, Gr-1, Ter119). For NK-T cell labelling, the mononuclear cells were incubated with FTTC-conjugated anti-mouse NK-1.1 and PE-conjugated anti-mouse CD3. All antibodies were from Pharmingen except anti-mouse Ter119, which was from Cedarline lab, Canada. After incubation, pellets were washed to remove unbound antibodies, fixed with 2% formaldehyde and evaluated by FACS (Becton Dickenson). As described in Science 1999; 284:1168-1170, LN^−ve/Thy-1^+ve cells, were classified as putative bone marrow-derived, hepatic progenitor cells. Data was analyzed by Cell Quest software (Becton Dickenson) to determine changes in these cell populations in different treatment groups.

healthy rats = healthy rats treated chronically; cited from earlier work

Row | SMILES | development of cirrhosis [1] | effect on proliferation induced by NE plus ISO ([2]; PRZ 10 μM, NE (100 nM)+ISO (100 nM)) | effect on NE-induced oval cell proliferation ([2]; prazosin 10 μM, pertussis toxin 100 ng/ml, PD98059 20 μM, SB202190 10 μM, 48 hours) | compensatory induction of hepatocyte DNA synthesis after partial hepatectomy (hepatocyte DNA synthesis) | hepatic TNF-α gene expression versus HMCDE-treated controls (TNF-α) | norepinephrine in rodent tissues (norepinephrine) | weight loss versus HMCDE group ([3]; FIG. 1, 4 weeks of feeding, P<0.05) | liver cell death / necrosis, representative liver section ([3]; FIG. 3A, H&E) | hepatocellular fat accumulation score, representative liver section ([3]; FIG. 3A, H&E, representative HMCDE animal 2+) | fat score versus HMCDE alone ([3]; FIG. 3B) | numbers of necrotic hepatocytes versus HMCDE diet alone ([3]; FIG. 3C, P<0.05) | serum alanine aminotransferase (ALT) versus HMCDE-fed mice ([3]; FIG. 3D, P<0.03) | mean body weight lost ([3]; mice fed HMCDE diet, 4 weeks, HMCDE alone lost 3 g) | body weight lost, % of starting body weight ([3]; mice fed HMCDE diet, 4 weeks, HMCDE alone lost 12%) | numbers of NK-T cells in the liver, % liver mononuclear cells (NK-T cells) | liver weight, body weight, ratio and serum ALT (healthy rats)
1 | COc1cc2nc(N3CCN(C(=O)c4ccco4)CC3)nc(N)c2cc1OC [PRZ, prazosin] | prevents the development of cirrhosis | blocks catecholamine-induced proliferation | significantly attenuated | inhibited | No differences in TNF-a gene expression were detected | – | – | – | – | – | – | – | – | – | – | –
2 | NCCc1cc(O)c(O)cc1O [6-OHDA, 6-hydroxydopamine] | – | – | – | – | – | virtually deplete norepinephrine in rodent tissues | lost less weight than the HMCDE group | minimal necrosis | F+ | significantly less fat than the HMCDE alone group | reduced | lower ALT levels | 2 g | 8% | 3.6 ± 0.6% | liver weight, body weight and liver weight to body weight ratios increase significantly without any associated increase in serum ALT values
